The numbers were not newly measured in patent EP4520317A1, “TRANSDERMAL THERAPEUTIC SYSTEM OF LUMATEPERONE” (Luye Pharma Switzerland AG, priority 2023, dated 2025), which cites them from elsewhere.

The conditions of this data set: in vivo.

In the case of `CN1CCN2c3c(cccc31)[C@@H]1CN(CCCC(=O)c3ccc(F)cc3)CC[C@@H]12` [lumateperone, 1-(4-fluoro-phenyl)-4-((6bR, 10aS)-3-methyl-2,3,6b,9,10,10a-hexahydro-1H,7H-pyrido[3',4':4,5]pyrrolo[1,2,3-de]quinoxalin-8-yl)-butan-1-one], the oral bioavailability result is given as “about 4.4%”.
